Laboratory results reported in patent US11643429B2, “Compounds and methods for the treatment of ocular disorders” (Azura Ophthalmics Ltd., priority 2019, dated 2023).
Where two headings read alike, the source gives them in different places.

Columns and labels:
[1] = Rabbit Cornea Homogenate Stability Assay (Rabbit Cornea Esterase Assay); type: in vitro ADME; conditions: New Zealand White, 37° C., half-life of parent conjugate
Description: Determining Rabbit Cornea Homogenate stability of the test compounds was performed using HPLC-MS. The assay was performed at two concentrations of Rabbit Cornea Homogenate (0.15 mg/ml and 0.45 mg/ml total protein) so that any hydrolysis observed could be assigned as esterase dependent or not.
Five rabbit corneas (e.g. New Zealand Whites) of approx. 50 mg each were sliced and scraped with a scalpel and tweezers until reduced to small (1-3 mm), thin pieces. These were transferred into a tared vial and accurately weighed, then diluted with 10 volumes aqueous PBS pH7.4
Sample was cooled intermittently on ice and shear homogenized for 3 minutes, then centrifuged for 3 min at 3000 rpm. The supernatant was pipetted off into a vial, and total protein concentration determined at 280 nm. Sample was stored at −78° C.
10 mM Compound stocks were diluted to 100 μM in a 96 deep-well plate: 10 μl of 10 mM Compound stock was added to 990 μl 50 mM HEPES, pH7.5 buffer.
Compounds were further diluted to 10 μM: 100 μl of 100 μM compound was added to 900 μl 50 mM HEPES, pH7.5 buffer.
Esterase homogenate was diluted to 300 ng/μl and 900 ng/μl
A heater shaker was set to 37° C. Into a suitable 96 well plate (Run Plate), 75 μl of 300 or 900 ng/μl esterase homogenate was pipetted into each of the required wells (2 min, 5 min, 10 min, 20 min and 45 min). The plate was sealed and then warmed at 37° C. for 5 min. Another 96 well PCR plate was put on ice (Kill Plate). To this was added 100 μl of MeCN to each well, labelled 0 min 2 min, 5 min, 10 min, 20 min and 45 min. The plate was covered to minimise evaporation. For the T=0 sample only, to the 100 μl cold MeCN stop solution was added 50 μl of 300 or 900 ng/μl esterase homogenate followed by 50 μl of 10 μM compound solution For the remaining timepoints, 75 μl of 10 μM compound solution was added to the Run Plate starting from T=45 min row and ending with T=2 min row. At the appropriate time point, 100 μl of the assay mixture was added to the matching kill plate well containing 100 μl of cold MeCN. Samples were analysed as soon as practicable by LCMS (Waters Xevo TQ-S or Micromass Ultima). Parent conjugate and parent concentrations were determined against appropriate standard response curves and the half-life (T1/2) of the parent conjugate was calculated using the peak area of the parent conjugate at each time point in the linear region of the log-linear plot.

[2] = Aqueous Hydrolysis Stability Assay; type: physicochemical; conditions: 50 mM HEPES buffer pH 7.5, read-out: T1/2 Aq Stability
Description: Determination of aqueous stability of the test compounds was performed using HIPLC-MS. A test compound 10 mM stock solution was prepared in DMSO. 10 μl of the DMSO stock solution was dissolved in 990 μl of 50 mM HEPES pH 7.5 buffer or 1:1 (v/v) of Acetonitrile:Water to make a 100 μM solution. Final DMSO concentration was 1%. The solution was kept at room temperature and injected without delay into the LCMS (Waters Xevo TQ-S or Micromass Ultima). Additional injections were performed at appropriate time points. Half-life (T1/2) of the parent conjugate was calculated using the peak area of the parent conjugate at each time point in the linear region of the log-linear plot.

[3] = pH 7.5, Rabbit Cornea Homogenate 0.15 mg/ml total protein, read-out: T1/2 Esterase (min) (0.15 mg/ml Homogenate)
[4] = pH 7.5, Rabbit Cornea Homogenate 0.45 mg/ml total protein, read-out: T1/2 Esterase (min) (0.45 mg/ml Homogenate)

Row | Compound | half-life at 5 µM [1, 3] [min] | half-life at 5 µM [1, 4] [min] | half-life at 100 µM ([2]; HEPES pH 7.5, room temperature) [min] | half-life at 100 µM ([2]; ND, estimated, in HEPES pH 7.5) [min]
1 | CC[C@H]1OC(=O)[C@H](C)[C@@H](O[C@H]2C[C@@](C)(OC)[C@@H](O)[C@H](C)O2)[C@H](C)[C@@H](O[C@@H]2O[C@H](C)C[C@H](N(C)C)[C@H]2OC(=O)Cc2ccc(OC)cc2)[C@](C)(O)C[C@@H](C)CN(C)[C@H](C)[C@@H](O)[C@]1(C)O [Compound 3, (2S,3R,4S,6R)-4-(Dimethylamino)-2-(((2R,3S,4R,5R,8R,10R,11R,12S,13S,14R)-2-ethyl-3,4,10-trihydroxy-13-(((2R,4R,5S,6S)-5-hydroxy-4-methoxy-4,6-dimethyltetrahydro-2H-pyran-2-yl)oxy)-3,5,6,8,10,12,14-heptamethyl-15-oxo-1-oxa-6-azacyclopentadecan-1-yl)oxy)-6-methyltetrahydro-2H-pyran-3-yl 2-(4-methoxyphenyl)acetate] | 35 | 39 | 42 | 
2 | CC[C@H]1OC(=O)[C@H](C)[C@@H](O[C@H]2C[C@@](C)(OC)[C@@H](O)[C@H](C)O2)[C@H](C)[C@@H](O[C@@H]2O[C@H](C)C[C@H](N(C)C)[C@H]2OC(=O)[C@H](C)OC(=O)[C@@H](C)O)[C@](C)(O)C[C@@H](C)CN(C)[C@H](C)[C@@H](O)[C@]1(C)O [Compound 7, (2S,3R,4S,6R)-4-(Dimethylamino)-2-(((2R,3S,4R,5R,8R,10R,11R,12S,13S,14R)-2-ethyl-3,4,10-trihydroxy-13-(((2R,4R,5S,6S)-5-hydroxy-4-methoxy-4,6-dimethyltetrahydro-2H-pyran-2-yl)oxy)-3,5,6,8,10,12,14-heptamethyl-15-oxo-1-oxa-6-azacyclopentadecan-11-yl)oxy)-6-methyltetrahydro-2H-pyran-3-yl(S)-2-(((R)-2-hydroxypropanoyl)oxy)propanoate] |  |  |  | < 3
3 | CC[C@H]1OC(=O)[C@H](C)[C@@H](O[C@H]2C[C@@](C)(OC)[C@@H](O)[C@H](C)O2)[C@H](C)[C@@H](O[C@@H]2O[C@H](C)C[C@H](N(C)C)[C@H]2OC(=O)SC[C@H](NC(C)=O)C(=O)OC)[C@](C)(O)C[C@@H](C)CN(C)[C@H](C)[C@@H](O)[C@]1(C)O [Compound 14, Methyl N-acetyl-S-((((2S,3R,4S,6R)-4-(dimethylamino)-2-(((2R,3S,4R,5R,8R,10R,11R,12S,13S,14R)-2-ethyl-3,4,10-trihydroxy-13-(((2R,4R,5S,6S)-5-hydroxy-4-methoxy-4,6-dimethyltetrahydro-2H-pyran-2-yl)oxy)-3,5,6,8,10,12,14-heptamethyl-15-oxo-1-oxa-6-azacyclopentadecan-11-yl)oxy)-6-methyltetrahydro-2H-pyran-3-yl)oxy)carbonyl)-L-cysteinate] | > 120 | > 120 | > 120 | 
4 | CC[C@H]1OC(=O)[C@H](C)[C@@H](O[C@H]2C[C@@](C)(OC)[C@@H](O)[C@H](C)O2)[C@H](C)[C@@H](O[C@@H]2O[C@H](C)C[C@H](N(C)C)[C@H]2OC(=O)COCCOCCOCCOCCO)[C@](C)(O)C[C@@H](C)CN(C)[C@H](C)[C@@H](O)[C@]1(C)O [Compound 4, (2S,3R,4S,6R)-4-(Dimethylamino)-2-(((2R,3S,4R,5R,8R,10R,11R,12S,13S,14R)-2-ethyl-3,4,10-trihydroxy-13-(((2R,4R,5S,6S)-5-hydroxy-4-methoxy-4,6-dimethyltetrahydro-2H-pyran-2-yl)oxy)-3,5,6,8,10,12,14-heptamethyl-15-oxo-1-oxa-6-azacyclopentadecan-11-yl)oxy)-6-methyltetrahydro-2H-pyran-3-yl 14-hydroxy-3,6,9,12-tetraoxatetradecanoate] |  |  | 5.7 | 
5 | CC[C@H]1OC(=O)[C@H](C)[C@@H](O[C@H]2C[C@@](C)(OC)[C@@H](O)[C@H](C)O2)[C@H](C)[C@@H](O[C@@H]2O[C@H](C)C[C@H](N(C)C)[C@H]2OC(=O)CO)[C@](C)(O)C[C@@H](C)CN(C)[C@H](C)[C@@H](O)[C@]1(C)O [Compound 1, (2S,3R,4S,6R)-4-(Dimethylamino)-2-(((2R,3S,4R,5R,8R,10R,11R,12S,13S,14R)-2-ethyl-3,4,10-trihydroxy-13-(((2R,4R,5S,6S)-5-hydroxy-4-methoxy-4,6-dimethyltetrahydro-2H-pyran-2-yl)oxy)-3,5,6,8,10,12,14-heptamethyl-15-oxo-1-oxa-6-azacyclopentadecan-11-yl)oxy)-6-methyltetrahydro-2H-pyran-3-yl 2-hydroxyacetate] |  |  |  | < 3
6 | CC[C@H]1OC(=O)[C@H](C)[C@@H](O[C@H]2C[C@@](C)(OC)[C@@H](O)[C@H](C)O2)[C@H](C)[C@@H](O[C@@H]2O[C@H](C)C[C@H](N(C)C)[C@H]2OC(=O)[C@@H](C)OC(C)=O)[C@](C)(O)C[C@@H](C)CN(C)[C@H](C)[C@@H](O)[C@]1(C)O [Compound 8, (2S,3R,4S,6R)-4-(Dimethylamino)-2-(((2R,3S,4R,5R,8R,10R,11R,12S,13S,14R)-2-ethyl-3,4,10-trihydroxy-13-(((2R,4R,5S,6S)-5-hydroxy-4-methoxy-4,6-dimethyltetrahydro-2H-pyran-2-yl)oxy)-3,5,6,8,10,12,14-heptamethyl-15-oxo-1-oxa-6-azacyclopentadecan-11-yl)oxy)-6-methyltetrahydro-2H-pyran-3-yl (R)-2-acetoxypropanoate] |  |  |  | < 3
7 | CC[C@H]1OC(=O)[C@H](C)[C@@H](O[C@H]2C[C@@](C)(OC)[C@@H](O)[C@H](C)O2)[C@H](C)[C@@H](O[C@@H]2O[C@H](C)C[C@H](N(C)C)[C@H]2OC(=O)[C@@H](C)O)[C@](C)(O)C[C@@H](C)CN(C)[C@H](C)[C@@H](O)[C@]1(C)O [Compound 2, (2S,3R,4S,6R)-4-(Dimethylamino)-2-(((2R,3S,4R,5R,8R,10R,11R,12S,13S,14R)-2-ethyl-3,4,10-trihydroxy-13-(((2R,4R,5S,6S)-5-hydroxy-4-methoxy-4,6-dimethyltetrahydro-2H-pyran-2-yl)oxy)-3,5,6,8,10,12,14-heptamethyl-15-oxo-1-oxa-6-azacyclopentadecan-11-yl)oxy)-6-methyltetrahydro-2H-pyran-3-yl (R)-2-hydroxypropanoate] |  |  | < 3 | 
8 | CC[C@H]1OC(=O)[C@H](C)[C@@H](O[C@H]2C[C@@](C)(OC)[C@@H](O)[C@H](C)O2)[C@H](C)[C@@H](O[C@@H]2O[C@H](C)C[C@H](N(C)C)[C@H]2OC(=O)[C@@H](C)OC(=O)[C@H](CS)NC(C)=O)[C@](C)(O)C[C@@H](C)CN(C)[C@H](C)[C@@H](O)[C@]1(C)O [Compound 6, (R)-1-(((2S,3R,4S,6R)-4-(Dimethylamino)-2-(((2R,3S,4R,5R,8R,10R,11R,12S,13S,14R)-2-ethyl-3,4,10-trihydroxy-13-(((2R,4R,5S,6S)-5-hydroxy-4-methoxy-4,6-dimethyltetrahydro-2H-pyran-2-yl)oxy)-3,5,6,8,10,12,14-heptamethyl-15-oxo-1-oxa-6-azacyclopentadecan-11-yl)oxy)-6-methyltetrahydro-2H-pyran-3-yl)oxy)-1-oxopropan-2-yl acetyl-L-cysteinate] |  |  |  | < 3
9 | CC[C@H]1OC(=O)[C@H](C)[C@@H](O[C@H]2C[C@@](C)(OC)[C@@H](O)[C@H](C)O2)[C@H](C)[C@@H](O[C@@H]2O[C@H](C)C[C@H](N(C)C)[C@H]2OC(=O)CCCC[C@@H]2CCSS2)[C@](C)(O)C[C@@H](C)CN(C)[C@H](C)[C@@H](O)[C@]1(C)O [Compound 9, (2S,3R,4S,6R)-4-(Dimethylamino)-2-(((2R,3S,4R,5R,8R,10R,11R,12S,13S,14R)-2-ethyl-3,4,10-trihydroxy-13-(((2R,4R,5S,6S)-5-hydroxy-4-methoxy-4,6-dimethyltetrahydro-2H-pyran-2-yl)oxy)-3,5,6,8,10,12,14-heptamethyl-15-oxo-1-oxa-6-azacyclopentadecan-11-yl)oxy)-6-methyltetrahydro-2H-pyran-3-yl 5-((R)-1,2-dithiolan-3-yl)pentanoate] |  |  |  | < 3
